# Source: patent publication US20060111395A1, “Aryl-and heteroaryl-substituted tetrahydroisoquinolines and use thereof to block reuptake of norepinephrine, dopamine and serotonin” (AMR Technology, Inc., priority 2004, published 2006)
# How the values were obtained:
# [1] = tested on: dopamine transporter protein over the norepinephrine transporter protein; settings: selectivity for DAT over NET; cited from earlier work
# [2] = cited from earlier work
smiles,measurement,setting,value
CN1Cc2cc(-c3ccoc3)ccc2C(c2ccccc2)C1 (stereo not drawn),melting point,,188 to 189 °C (dec.)
COC(=O)C(c1ccccc1)C1CCCCN1 (stereo not drawn) [Methylphenidate],DAT/NET Ki ratio,[1],0.1
CN1Cc2c(N)cccc2C(c2ccccc2)C1 (stereo not drawn) [Nomofensine®],side effect of long term administration,[2],fatal immune hemolytic anemia
